This is an account of results in DBAASP.

Assay in all cases: ≥ marks a high value that may be exact or a test limit, other limits are often not marked, values filed in µg/mL are converted to µM
Experiment [1] relates to Escherichia coli ATCC 8739.
Experiment [2] relates to Staphylococcus aureus ATCC 25923.
Experiment [3] has as its system Pseudomonas aeruginosa CMCCB 10104.
Experiment [4] deals with Pseudomonas aeruginosa ATCC 9027.
For experiment [5], the system named is Enterococcus faecium NTCC 12697.
Experiment [6] relates to Staphylococcus aureus ATCC 43300.
Experiment [7] concerns Candida albicans ATCC 2002.
Experiment [8] deals with Staphylococcus aureus NCTC 10788.
The subject of experiment [9] is Bacillus subtilis ATCC 6633.
Experiment [10] concerns Staphylococcus aureus NCTC 12493.
Experiment [11] deals with Klebsiella pneumoniae ATCC 43816.
Experiment [12] deals with Staphylococcus aureus ATCC 6538.
In experiment [13] the test system is Escherichia coli ATCC 25922.
The test system of experiment [14] is Penicillium digitatum PHI-26.
Experiment [15] deals with Streptococcus agalactiae ATCC 12386.
For experiment [16], the system named is Staphylococcus aureus ATCC 29213.
For experiment [17], the system named is Pseudomonas aeruginosa ATCC 27853.
The test system of experiment [18] is Enterococcus faecalis ATCC 29212.
The subject of experiment [19] is Klebsiella pneumoniae ATCC 13883.
Experiment [20] concerns Psychrobacter faecalis X29.
For experiment [21], the system named is Rhodococcus rhodochrous X15.
In a further experiment the test system is Serratia rubidaea X01.
The test system of experiment [22] is Klebsiella pneumoniae 08040724.
The subject of experiment [23] is Bacillus licheniformis X39.
Experiment [24] relates to Staphylococcus carnosus KHS.
The subject of experiment [25] is Enterococcus faecalis 981.
In experiment [26] the test system is Staphylococcus epidermidis KCTC 1917.
The test system of experiment [27] is Salmonella typhimurium KCTC 1926.
For experiment [28], the system named is Staphylococcus aureus KCTC 1621.
For experiment [29], the system named is Pseudomonas aeruginosa KCTC 1637.
The test system of experiment [30] is Bacillus subtilis KCTC 3068.
In experiment [31] the test system is Escherichia coli KCTC 1682.
Experiment [32] relates to Pseudomonas aeruginosa H1001.
The subject of experiment [33] is Escherichia coli KCCM 11569.
In experiment [34] the test system is Bacillus subtilis KCCM 11495.

As usually defined, the MIC is the lowest concentration that inhibits growth of the organism.

≈ marks a conversion by molar mass, not a printed value. Where “and” joins values, the source holds several entries; their conditions need not be identical. Identical values can stand only once. Some results are limits rather than exact numbers.

In the case of `CC[C@H](C)[C@@H]1NC(=O)[C@H](CCCCN)NC(=O)[C@@H](NC(=O)[C@H](CCCCN)NC(=O)[C@H](CC(C)C)NC(=O)[C@H](CCCCN)NC(=O)[C@H](CC(=O)O)NC(=O)[C@H](CC(C)C)NC(=O)[C@H](CC(C)C)NC(=O)[C@@H](NC(=O)[C@H](C)NC(=O)[C@H](C)NC(=O)[C@@H](NC(=O)[C@H](CC(N)=O)NC(=O)[C@H](CCCCN)NC(=O)[C@H](C)NC(=O)[C@@H](NC(=O)[C@H](CC(N)=O)NC(=O)[C@H](CCCCN)NC(=O)[C@H](C)NC(=O)[C@@H](NC(=O)[C@H](CC(=O)O)NC(=O)[C@H](CCSC)NC(=O)[C@H](Cc2ccccc2)NC(=O)CN)[C@@H](C)O)C(C)C)C(C)C)[C@@H](C)O)CSSC[C@@H](C(=O)O)NC(=O)CNC(=O)CNC(=O)[C@H]([C@@H](C)O)NC1=O` [GFMDTAKNVAKNVAATLLDKLKCKITGGC], the MIC in [1] is ≥ 100 µM; in experiment [2] it was 2.42 µM (≈ 7.3 µg/mL); in experiment [3], 4.81 µM (≈ 14.5 µg/mL); in experiment [4], ≥ 128 µM; in [5], ≥ 256 µM; in experiment [6] it was > 100 µM. Also, the MIC in [7] was 4.81 µM (≈ 14.5 µg/mL); in [8], ≥ 32 µM; in experiment [9], 12.5 µM (≈ 37.6 µg/mL); in [10] it was ≥ 256 µM; in experiment [11] it was ≥ 128 µM; in experiment [12], 25 µM (≈ 75.2 µg/mL). In addition, the MIC in experiment [13] came out at 4.81 µM (≈ 14.5 µg/mL).

`CC[C@H](C)[C@H](NC(=O)CN)C(=O)NCC(=O)N[C@@H](C)C(=O)N[C@H](C(=O)N[C@@H](CC(C)C)C(=O)N[C@H](C(=O)N[C@H](C(=O)N[C@@H](CC(C)C)C(=O)N[C@H](C(=O)N[C@H](C(=O)NCC(=O)N[C@@H](CC(C)C)C(=O)N1CCC[C@H]1C(=O)N[C@@H](C)C(=O)N[C@@H](CC(C)C)C(=O)N[C@H](C(=O)N[C@@H](CO)C(=O)N[C@@H](Cc1c[nH]c2ccccc12)C(=O)N[C@H](C(=O)N[C@@H](CCCCN)C(=O)N[C@@H](CCCN=C(N)N)C(=O)N[C@@H](CCCCN)C(=O)N[C@@H](CCCN=C(N)N)C(=O)N[C@@H](CCC(N)=O)C(=O)N[C@@H](CCC(N)=O)C(N)=O)[C@@H](C)CC)[C@@H](C)CC)[C@@H](C)O)[C@@H](C)O)C(C)C)[C@@H](C)CC)C(C)C` [GIGAVLIVLTTGLPALISWIKRKRQQ]: in [14], the MIC was 8 µM and 15 µM.

With `CC[C@H](C)[C@H](NC(=O)CN)C(=O)NCC(=O)N[C@@H](CCCCN)C(=O)N[C@@H](Cc1ccccc1)C(=O)N[C@@H](CC(C)C)C(=O)N[C@@H](Cc1cnc[nH]1)C(=O)N[C@@H](CO)C(=O)N[C@@H](C)C(=O)N[C@@H](CCCCN)C(=O)N[C@@H](CCCCN)C(=O)N[C@@H](Cc1ccccc1)C(=O)N[C@@H](C)C(=O)N[C@@H](CCCCN)C(=O)N[C@@H](C)C(=O)N[C@@H](Cc1ccccc1)C(=O)N[C@H](C(=O)N[C@@H](C)C(=O)N[C@@H](CCC(=O)O)C(=O)N[C@H](C(=O)N[C@@H](CCSC)C(=O)N[C@@H](CC(N)=O)C(=O)N[C@@H](CO)C(N)=O)[C@@H](C)CC)C(C)C` [GIGKFLHSAKKFAKAFVAEIMNS], the MIC was 0.401 µM (≈ 1 µg/mL) in experiment [15]; 4.01 µM (≈ 10 µg/mL) in experiment [16]; 10 µM (≈ 25 µg/mL) in experiment [2]; 20 µM (≈ 50 µg/mL) in [17]; 10 µM (≈ 25 µg/mL) in [18]; 10 µM (≈ 25 µg/mL) in experiment [19]. This compound yielded a minimum inhibitory concentration (MIC) in experiment [13] of 2 µM (≈ 5 µg/mL).

Consider `CC[C@H](C)[C@@H]1NC(=O)CNC(=O)[C@@H](NC(=O)[C@H](CCCN=C(N)N)NC(=O)[C@@H](NC(=O)[C@H](CCCCN)NC(=O)[C@H](CC(=O)O)NC(=O)[C@H](CC(C)C)NC(=O)[C@@H](NC(=O)[C@H](CC(N)=O)NC(=O)[C@@H](NC(=O)[C@H](C)NC(=O)[C@H](Cc2ccccc2)NC(=O)[C@H](CCCCN)NC(=O)[C@H](CCCCN)NC(=O)CNC(=O)[C@H](C)NC(=O)[C@H](CCC(=O)O)NC(=O)[C@H](CCCCN)NC(=O)[C@@H](NC(=O)[C@@H](NC(=O)[C@H](CC(N)=O)NC(=O)[C@H](Cc2c[nH]c3ccccc23)NC(=O)[C@H](CC(C)C)NC(=O)CN)[C@@H](C)O)[C@@H](C)CC)[C@@H](C)CC)C(C)C)[C@@H](C)CC)CSSC[C@@H](C(=O)N[C@@H](CCCCN)C(=O)N[C@H](C(=O)O)[C@@H](C)O)NC(=O)CNC(=O)CNC(=O)[C@H](C)NC1=O` [GLWNTIKEAGKKFAINVLDKIRCGIAGGCKT], for which the MIC in experiment [20] was 4.5 µM (≈ 14.9 µg/mL); in [2], 150 µM (≈ 496 µg/mL); in experiment [21] it was 2.3 µM (≈ 7.6 µg/mL); with Serratia rubidaea X01 it was 4.6 µM (≈ 15.2 µg/mL); in experiment [22], ≥ 150 µM; in [23] it was 19 µM (≈ 62.8 µg/mL). Further, the MIC in experiment [24] was 19 µM (≈ 62.8 µg/mL); in experiment [13], 150 µM (≈ 496 µg/mL); in experiment [25], ≥ 75 µM.

As for `CC[C@H](C)[C@H](N)C(=O)N[C@@H](CC(C)C)C(=O)N[C@@H](CCCCN)C(=O)N[C@@H](Cc1c[nH]c2ccccc12)C(=O)N[C@@H](CCCCN)C(=O)N[C@@H](Cc1c[nH]c2ccccc12)C(=O)N1CCC[C@H]1C(=O)N[C@@H](Cc1c[nH]c2ccccc12)C(=O)N[C@@H](Cc1c[nH]c2ccccc12)C(=O)N1CCC[C@H]1C(=O)N[C@@H](Cc1c[nH]c2ccccc12)C(=O)N[C@@H](CCCN=C(N)N)C(=O)N[C@@H](CCCN=C(N)N)C(N)=O` [ILKWKWPWWPWRR], the minimum inhibitory concentration (MIC) in experiment [26] was found to be 5.16 µM (≈ 10 µg/mL); in experiment [27] it was 5.16 µM (≈ 10 µg/mL); in [28], 2.58 µM (≈ 5 µg/mL); in [29], 10.3 µM (≈ 20 µg/mL); in experiment [30], 2.58 µM (≈ 5 µg/mL); in experiment [31], 5.16 µM (≈ 10 µg/mL). For the same compound, the MIC in experiment [32] was found to be 5.16 µM (≈ 10 µg/mL).

Take `CC(C)C[C@H](NC(=O)CNC(=O)[C@H](Cc1cnc[nH]1)NC(=O)[C@H](Cc1cnc[nH]1)NC(=O)[C@H](CC(C)C)NC(=O)[C@H](CC(C)C)NC(=O)[C@H](C)NC(=O)[C@H](CC(N)=O)NC(=O)[C@H](CC(C)C)NC(=O)[C@@H](N)Cc1c[nH]c2ccccc12)C(=O)N[C@@H](CC(N)=O)C(=O)N[C@@H](CS)C(=O)N[C@@H](C)C(=O)N[C@@H](CCCCN)C(=O)NCC(N)=O` [WLNALLHHGLNCAKG]: the minimal inhibitory concentration (MIC) in experiment [33] and in experiment [34] was ≥ 38.9 µM in each case.
